Data published in ChEMBL document CHEMBL4414657, “Psiguadiols A-J, Rearranged Meroterpenoids as Potent PTP1B Inhibitors from Psidium guajava” (J Nat Prod, 2019).

Assays:
[1] = biological target: T1, Tyrosine-protein phosphatase non-receptor type 1 (Homo sapiens, UniProt P18031); test: Inhibition of PTP1B (unknown origin) using pNPP as substrate incubated for 30 mins by ELISA
T1 sequence (P18031 whole entry): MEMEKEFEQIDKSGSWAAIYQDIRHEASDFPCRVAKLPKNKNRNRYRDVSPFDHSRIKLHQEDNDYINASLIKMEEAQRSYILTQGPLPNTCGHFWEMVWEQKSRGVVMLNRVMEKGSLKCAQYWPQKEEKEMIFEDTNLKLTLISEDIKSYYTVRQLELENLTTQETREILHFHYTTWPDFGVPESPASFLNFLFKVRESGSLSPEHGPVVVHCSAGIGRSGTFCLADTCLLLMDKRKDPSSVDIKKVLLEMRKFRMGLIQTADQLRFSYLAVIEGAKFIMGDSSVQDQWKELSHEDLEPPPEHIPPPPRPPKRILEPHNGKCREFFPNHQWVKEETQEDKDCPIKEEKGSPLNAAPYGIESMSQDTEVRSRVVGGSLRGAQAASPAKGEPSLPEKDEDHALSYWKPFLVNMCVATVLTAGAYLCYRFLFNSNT

[2] = biological target: T2, Tyrosine-protein phosphatase non-receptor type 1 (Homo sapiens) (UniProt P18031); test: Inhibition of PTP1B (unknown origin) at 20 ug/ml using pNPP as substrate incubated for 30 mins by ELISA relative to control
T2 sequence (whole entry): T1 sequence (P18031 whole entry)

SMILES | IC50 [1] | inhibition [2]
CC(C)[C@@H]1CC[C@@H](C)[C@H]2C[C@@]3(O)[C@H](c4ccccc4)c4c(O)c(C=O)c(O)c(C=O)c4O[C@]3(C)C=C12 | 6.2 µM | > 96%
C=C1CC[C@@H]2[C@H](CC2(C)C)[C@@]2(CC[C@H]1O)C[C@H](c1ccccc1)c1c(O)c(C=O)c(O)c(C=O)c1O2 | 4.7 µM | > 96%
C=C1CC[C@@H]2[C@H]([C@@H]3Oc4c(C=O)c(O)c(C=O)c(O)c4[C@H](c4ccccc4)[C@@]3(C)CC[C@H]1O)C2(C)C | 22.8 µM | > 96%
C=C1CC[C@@H]2[C@H](CC2(C)C)[C@@]2(CC[C@@H]1O)C[C@H](c1ccccc1)c1c(O)c(C=O)c(O)c(C=O)c1O2 | 11 µM | > 96%
C=C1CC[C@@H]2[C@H]([C@@H]3Oc4c(C=O)c(O)c(C=O)c(O)c4[C@H](c4ccccc4)[C@@]3(C)CC[C@@H]1O)C2(C)C | 22.8 µM | > 96%

The remaining compounds from weak to strong by IC50 [1], led by results:

IC50 [1] | inhibition [2] | SMILES
19.1 µM | > 96% | CC(C)[C@@H]1CC[C@@H](C)[C@H]2C[C@]34O[C@H]([C@@]21O)[C@@]3(C)Oc1c(C=O)c(O)c(C=O)c(O)c1[C@H]4c1ccccc1
18.9 µM | > 96% | CC(C)[C@@H]1CC[C@@H](C)[C@]2(O)C[C@@H]3[C@H](c4ccccc4)c4c(O)c(C=O)c(O)c(C=O)c4O[C@]3(C)C=C12
11.9 µM | > 96% | C/C1=C/C[C@@H]2[C@H](CC2(C)C)[C@@]2(CC[C@H]1O)C[C@H](c1ccccc1)c1c(O)c(C=O)c(O)c(C=O)c1O2
10.7 µM | > 96% | CC(C)[C@@H]1CC[C@@H](C)[C@]23C[C@@H]4[C@H](c5ccccc5)c5c(O)c(C=O)c(O)c(C=O)c5O[C@]4(C)[C@@H](O)[C@]12O3
9.2 µM | > 96% | C/C1=C/C[C@@H]2[C@H]([C@@H]3Oc4c(C=O)c(O)c(C=O)c(O)c4[C@H](c4ccccc4)[C@@]3(C)CC[C@@H]1O)C2(C)C
